Legend:
Experiment in all cases: relative viability (nuclei count vs DMSO), 5 days (fraction); higher = more cells survive
ABC-1 = test system: ABC-1
Outline: (§1)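 Nuclei were stained with Hoechst during a one-step fixation (final 0.05% Triton X-100, 1% formaldehyde, 1 ug/ml Hoechst) carried out 5 days after dosing, then counted on 4× images. The cells, lung cancer lines in 1536-well plates, had been dosed by pin tool the day after seeding with one drug alone or a fixed anchor-drug dose plus five library-drug doses (not always all listed) in √10 steps. Relative viability is the nuclei count in treated wells divided by that in vehicle wells, and each value is the median of duplicate plates.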

COR-L23 = test system: COR-L23
Outline: as §1

EMC-BAC-2 = test system: EMC-BAC-2
Outline: as §1

HARA = test system: HARA
Outline: as §1

HCC-15 = test system: HCC-15
Outline: as §1

HCC-366 = test system: HCC-366
Outline: as §1

HCC-78 = test system: HCC-78
Outline: as §1

HOP-62 = test system: HOP-62
Outline: as §1

LC-2-ad = test system: LC-2-ad
Outline: as §1

NCI-H1395 = test system: NCI-H1395
Outline: as §1

NCI-H1793 = test system: NCI-H1793
Outline: as §1

NCI-H1944 = test system: NCI-H1944
Outline: as §1

NCI-H1993 = test system: NCI-H1993
Outline: as §1

NCI-H2023 = test system: NCI-H2023
Outline: as §1

NCI-H2126 = test system: NCI-H2126
Outline: as §1

NCI-H2228 = test system: NCI-H2228
Outline: as §1

NCI-H23 = test system: NCI-H23
Outline: as §1

NCI-H2405 = test system: NCI-H2405
Outline: as §1

NCI-H358 = test system: NCI-H358
Outline: as §1

NCI-H838 = test system: NCI-H838
Outline: as §1

SK-LU-1 = test system: SK-LU-1
Outline: as §1

O=c1cc(N2CCOCC2)oc2c(-c3cccc4c3sc3ccccc34)cccc12 + CS(=O)(=O)CCNCc1ccc(-c2ccc3ncnc(Nc4ccc(OCc5cccc(F)c5)c(Cl)c4)c3c2)o1 [Lapatinib] (partner 2 µM)
relative viability (ABC-1; first compound 0.01 µM): 1.07
relative viability (ABC-1; first compound 0.03162 µM): 1.07
relative viability (ABC-1; first compound 0.1 µM): 1.6
relative viability (ABC-1; first compound 0.3162 µM): 1.04
relative viability (ABC-1; first compound 1 µM): 1.2
relative viability (COR-L23; first compound 0.01 µM): 1.01
relative viability (COR-L23; first compound 0.03162 µM): 0.823
relative viability (COR-L23; first compound 0.1 µM): 0.924
relative viability (COR-L23; first compound 0.3162 µM): 0.843
relative viability (COR-L23; first compound 1 µM): 1
relative viability (EMC-BAC-2; first compound 0.01 µM): 0.732
relative viability (EMC-BAC-2; first compound 0.03162 µM): 0.946
relative viability (EMC-BAC-2; first compound 0.1 µM): 0.97
relative viability (EMC-BAC-2; first compound 0.3162 µM): 0.893
relative viability (EMC-BAC-2; first compound 1 µM): 0.848
relative viability (HARA; first compound 0.01 µM): 0.547
relative viability (HARA; first compound 0.03162 µM): 0.756
relative viability (HARA; first compound 0.1 µM): 0.702
relative viability (HARA; first compound 0.3162 µM): 0.797
relative viability (HARA; first compound 1 µM): 0.665
relative viability (HCC-15; first compound 0.01 µM): 0.823
relative viability (HCC-15; first compound 0.03162 µM): 0.881
relative viability (HCC-15; first compound 0.1 µM): 0.999
relative viability (HCC-15; first compound 0.3162 µM): 0.871
relative viability (HCC-15; first compound 1 µM): 0.86
relative viability (HCC-366; first compound 0.01 µM): 0.968
relative viability (HCC-366; first compound 0.03162 µM): 1.06
relative viability (HCC-366; first compound 0.1 µM): 1.04
relative viability (HCC-366; first compound 0.3162 µM): 1.04
relative viability (HCC-366; first compound 1 µM): 1.04
relative viability (HCC-78; first compound 0.01 µM): 1.03
relative viability (HCC-78; first compound 0.03162 µM): 0.856
relative viability (HCC-78; first compound 0.1 µM): 0.785
relative viability (HCC-78; first compound 0.3162 µM): 0.785
relative viability (HCC-78; first compound 1 µM): 0.652
relative viability (HOP-62; first compound 0.01 µM): 0.996
relative viability (HOP-62; first compound 0.03162 µM): 0.856
relative viability (HOP-62; first compound 0.1 µM): 0.821
relative viability (HOP-62; first compound 0.3162 µM): 0.958
relative viability (HOP-62; first compound 1 µM): 1.17
relative viability (LC-2-ad; first compound 0.01 µM): 1.06
relative viability (LC-2-ad; first compound 0.1 µM): 1.03
relative viability (LC-2-ad; first compound 0.3162 µM): 0.898
relative viability (LC-2-ad; first compound 1 µM): 1.02
relative viability (NCI-H1395; first compound 0.01 µM): 0.997
relative viability (NCI-H1395; first compound 0.03162 µM): 1.18
relative viability (NCI-H1395; first compound 0.1 µM): 0.826
relative viability (NCI-H1395; first compound 0.3162 µM): 1.04
relative viability (NCI-H1395; first compound 1 µM): 0.854
relative viability (NCI-H1793; first compound 0.01 µM): 0.707
relative viability (NCI-H1793; first compound 0.03162 µM): 0.824
relative viability (NCI-H1793; first compound 0.1 µM): 0.656
relative viability (NCI-H1793; first compound 0.3162 µM): 0.499
relative viability (NCI-H1793; first compound 1 µM): 0.45
relative viability (NCI-H1944; first compound 0.01 µM): 0.842
relative viability (NCI-H1944; first compound 0.03162 µM): 0.817
relative viability (NCI-H1944; first compound 0.1 µM): 1.04
relative viability (NCI-H1944; first compound 0.3162 µM): 1.01
relative viability (NCI-H1944; first compound 1 µM): 0.775
relative viability (NCI-H1993; first compound 0.01 µM): 0.823
relative viability (NCI-H1993; first compound 0.03162 µM): 0.911
relative viability (NCI-H1993; first compound 0.1 µM): 0.813
relative viability (NCI-H1993; first compound 0.3162 µM): 0.764
relative viability (NCI-H1993; first compound 1 µM): 0.829
relative viability (NCI-H2023; first compound 0.01 µM): 0.88
relative viability (NCI-H2023; first compound 0.03162 µM): 0.975
relative viability (NCI-H2023; first compound 0.1 µM): 0.882
relative viability (NCI-H2023; first compound 0.3162 µM): 0.826
relative viability (NCI-H2023; first compound 1 µM): 0.887
relative viability (NCI-H2126; first compound 0.01 µM): 0.826
relative viability (NCI-H2126; first compound 0.03162 µM): 0.768
relative viability (NCI-H2126; first compound 0.1 µM): 0.758
relative viability (NCI-H2126; first compound 0.3162 µM): 0.748
relative viability (NCI-H2126; first compound 1 µM): 0.718
relative viability (NCI-H2228; first compound 0.03162 µM): 0.978
relative viability (NCI-H2228; first compound 0.1 µM): 1.03
relative viability (NCI-H2228; first compound 0.3162 µM): 1.23
relative viability (NCI-H2228; first compound 1 µM): 1.19
relative viability (NCI-H23; first compound 0.01 µM): 0.992
relative viability (NCI-H23; first compound 0.03162 µM): 1.09
relative viability (NCI-H23; first compound 0.3162 µM): 1.1
relative viability (NCI-H23; first compound 1 µM): 1.22
relative viability (NCI-H2405; first compound 0.01 µM): 1.12
relative viability (NCI-H2405; first compound 0.03162 µM): 1.18
relative viability (NCI-H2405; first compound 0.1 µM): 1.04
relative viability (NCI-H2405; first compound 0.3162 µM): 1.2
relative viability (NCI-H2405; first compound 1 µM): 1.11
relative viability (NCI-H358; first compound 0.01 µM): 0.515
relative viability (NCI-H358; first compound 0.03162 µM): 0.478
relative viability (NCI-H358; first compound 0.1 µM): 0.482
relative viability (NCI-H358; first compound 0.3162 µM): 0.467
relative viability (NCI-H358; first compound 1 µM): 0.433
relative viability (NCI-H838; first compound 0.01 µM): 1.08
relative viability (NCI-H838; first compound 0.03162 µM): 0.915
relative viability (NCI-H838; first compound 0.1 µM): 0.984
relative viability (NCI-H838; first compound 0.3162 µM): 0.97
relative viability (NCI-H838; first compound 1 µM): 0.969
relative viability (SK-LU-1; first compound 0.01 µM): 0.808
relative viability (SK-LU-1; first compound 0.03162 µM): 0.815
relative viability (SK-LU-1; first compound 0.1 µM): 0.671
relative viability (SK-LU-1; first compound 0.3162 µM): 0.82
relative viability (SK-LU-1; first compound 1 µM): 0.816

Reference: the supplement of paper PMC10307832
